Results taken from the supplement of paper PMC10307832.

Key:
Assay in all cases: relative viability (nuclei count vs DMSO), 5 days (fraction); higher = more cells survive
LU99A = system: LU99A
Procedure, shortened: (§1)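 Nuclei were stained with Hoechst during a one-step fixation (final 0.05% Triton X-100, 1% formaldehyde, 1 ug/ml Hoechst) carried out 5 days after dosing, then counted on 4× images. The cells, lung cancer lines in 1536-well plates, had been dosed by pin tool the day after seeding with one drug alone or a fixed anchor-drug dose plus five library-drug doses (not always all listed) in √10 steps. Relative viability is the nuclei count in treated wells divided by that in vehicle wells, and each value is the median of duplicate plates.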

NCI-H1395 = system: NCI-H1395
Procedure, shortened: as §1

HCC-15 = system: HCC-15
Procedure, shortened: as §1

NCI-H647 = system: NCI-H647
Procedure, shortened: as §1

NCI-H1944 = system: NCI-H1944
Procedure, shortened: as §1

NCI-H520 = system: NCI-H520
Procedure, shortened: as §1

CAL-12T = system: CAL-12T
Procedure, shortened: as §1

NCI-H1666 = system: NCI-H1666
Procedure, shortened: as §1

SK-LU-1 = system: SK-LU-1
Procedure, shortened: as §1

LC-2-ad = system: LC-2-ad
Procedure, shortened: as §1

PC-3 [JPC-3] = system: PC-3 [JPC-3]
Procedure, shortened: as §1

NCI-H1734 = system: NCI-H1734
Procedure, shortened: as §1

NCI-H1975 = system: NCI-H1975
Procedure, shortened: as §1

H3255 = system: H3255
Procedure, shortened: as §1

PC-14 = system: PC-14
Procedure, shortened: as §1

NCI-H2228 = system: NCI-H2228
Procedure, shortened: as §1

NCI-H1993 = system: NCI-H1993
Procedure, shortened: as §1

HCC-366 = system: HCC-366
Procedure, shortened: as §1

COR-L 105 = system: COR-L 105
Procedure, shortened: as §1

HARA = system: HARA
Procedure, shortened: as §1

NCI-H838 = system: NCI-H838
Procedure, shortened: as §1

NCI-H3122 = system: NCI-H3122
Procedure, shortened: as §1

Question: Which results are given for `O=C(O)CCCCC(CCSCc1ccccc1)SCc1ccccc1` (stereo not given) [CPI-613] + CC1(C)CCC(c2ccc(Cl)cc2)=C(CN2CCN(c3ccc(C(=O)NS(=O)(=O)c4ccc(N[C@H](CCN5CCOCC5)CSc5ccccc5)c(S(=O)(=O)C(F)(F)F)c4)cc3)CC2)C1 [Navitoclax] (partner 0.5 µM)?
Answer: relative viability (LU99A; first compound 5 µM): 0.631; relative viability (LU99A; first compound 15.81 µM): 0.77; relative viability (LU99A; first compound 50 µM): 0.816; relative viability (LU99A; first compound 158.11 µM): 0.142; relative viability (LU99A; first compound 500 µM): 0.0335; relative viability (NCI-H1395; first compound 5 µM): 1.48; relative viability (NCI-H1395; first compound 15.81 µM): 1.03; relative viability (NCI-H1395; first compound 50 µM): 1.08; relative viability (NCI-H1395; first compound 158.11 µM): 1.16; relative viability (NCI-H1395; first compound 500 µM): 0.961; relative viability (HCC-15; first compound 5 µM): 0.625; relative viability (HCC-15; first compound 15.81 µM): 0.68; relative viability (HCC-15; first compound 50 µM): 0.612; relative viability (HCC-15; first compound 158.11 µM): 0.309; relative viability (HCC-15; first compound 500 µM): 0.278; relative viability (NCI-H647; first compound 5 µM): 1.05; relative viability (NCI-H647; first compound 15.81 µM): 1.11; relative viability (NCI-H647; first compound 50 µM): 0.963; relative viability (NCI-H647; first compound 158.11 µM): 0.875; relative viability (NCI-H647; first compound 500 µM): 0.238; relative viability (NCI-H1944; first compound 5 µM): 0.998; relative viability (NCI-H1944; first compound 15.81 µM): 1.01; relative viability (NCI-H1944; first compound 50 µM): 1.02; relative viability (NCI-H1944; first compound 158.11 µM): 0.769; relative viability (NCI-H1944; first compound 500 µM): 0.627; relative viability (NCI-H520; first compound 5 µM): 0.932; relative viability (NCI-H520; first compound 15.81 µM): 1.1; relative viability (NCI-H520; first compound 50 µM): 1.18; relative viability (NCI-H520; first compound 158.11 µM): 0.355; relative viability (NCI-H520; first compound 500 µM): 0.154; relative viability (CAL-12T; first compound 5 µM): 1.17; relative viability (CAL-12T; first compound 15.81 µM): 0.967; relative viability (CAL-12T; first compound 50 µM): 0.965; relative viability (CAL-12T; first compound 158.11 µM): 0.0606; relative viability (CAL-12T; first compound 500 µM): 0.0373; relative viability (NCI-H1666; first compound 5 µM): 0.944; relative viability (NCI-H1666; first compound 15.81 µM): 1.16; relative viability (NCI-H1666; first compound 50 µM): 1.03; relative viability (NCI-H1666; first compound 158.11 µM): 0.296; relative viability (NCI-H1666; first compound 500 µM): 0.212; relative viability (SK-LU-1; first compound 5 µM): 0.78; relative viability (SK-LU-1; first compound 15.81 µM): 0.586; relative viability (SK-LU-1; first compound 50 µM): 0.857; relative viability (SK-LU-1; first compound 158.11 µM): 0.195; relative viability (SK-LU-1; first compound 500 µM): 0.156; relative viability (LC-2-ad; first compound 5 µM): 0.431; relative viability (LC-2-ad; first compound 15.81 µM): 0.354; relative viability (LC-2-ad; first compound 50 µM): 0.297; relative viability (LC-2-ad; first compound 158.11 µM): 0.0601; relative viability (LC-2-ad; first compound 500 µM): 0.0074; relative viability (PC-3 [JPC-3]; first compound 5 µM): 0.819; relative viability (PC-3 [JPC-3]; first compound 15.81 µM): 0.7; relative viability (PC-3 [JPC-3]; first compound 50 µM): 0.696; relative viability (PC-3 [JPC-3]; first compound 158.11 µM): 0.448; relative viability (PC-3 [JPC-3]; first compound 500 µM): 0.469; relative viability (NCI-H1734; first compound 5 µM): 0.776; relative viability (NCI-H1734; first compound 15.81 µM): 0.677; relative viability (NCI-H1734; first compound 50 µM): 0.75; relative viability (NCI-H1734; first compound 158.11 µM): 0.545; relative viability (NCI-H1734; first compound 500 µM): 0.117; relative viability (NCI-H1975; first compound 5 µM): 0.988; relative viability (NCI-H1975; first compound 15.81 µM): 1.1; relative viability (NCI-H1975; first compound 50 µM): 1.08; relative viability (NCI-H1975; first compound 158.11 µM): 0.816; relative viability (NCI-H1975; first compound 500 µM): 0.0403; relative viability (H3255; first compound 5 µM): 0.497; relative viability (H3255; first compound 15.81 µM): 0.476; relative viability (H3255; first compound 50 µM): 0.337; relative viability (H3255; first compound 158.11 µM): 0.498; relative viability (H3255; first compound 500 µM): 0.562; relative viability (PC-14; first compound 5 µM): 1; relative viability (PC-14; first compound 15.81 µM): 1.05; relative viability (PC-14; first compound 50 µM): 1; relative viability (PC-14; first compound 158.11 µM): 0.869; relative viability (PC-14; first compound 500 µM): 1.16; relative viability (NCI-H2228; first compound 5 µM): 1.04; relative viability (NCI-H2228; first compound 15.81 µM): 0.755; relative viability (NCI-H2228; first compound 50 µM): 0.758; relative viability (NCI-H2228; first compound 158.11 µM): 0.297; relative viability (NCI-H2228; first compound 500 µM): 0.0138; relative viability (NCI-H1993; first compound 5 µM): 0.917; relative viability (NCI-H1993; first compound 15.81 µM): 0.917; relative viability (NCI-H1993; first compound 50 µM): 1.06; relative viability (NCI-H1993; first compound 158.11 µM): 0.64; relative viability (NCI-H1993; first compound 500 µM): 0.408; relative viability (HCC-366; first compound 5 µM): 1.03; relative viability (HCC-366; first compound 15.81 µM): 0.99; relative viability (HCC-366; first compound 50 µM): 1.1; relative viability (HCC-366; first compound 158.11 µM): 0.774; relative viability (HCC-366; first compound 500 µM): 0.0086; relative viability (COR-L 105; first compound 5 µM): 0.847; relative viability (COR-L 105; first compound 15.81 µM): 0.776; relative viability (COR-L 105; first compound 50 µM): 0.719; relative viability (COR-L 105; first compound 158.11 µM): 0.297; relative viability (COR-L 105; first compound 500 µM): 0.286; relative viability (HARA; first compound 5 µM): 1.14; relative viability (HARA; first compound 15.81 µM): 1.13; relative viability (HARA; first compound 50 µM): 1.16; relative viability (HARA; first compound 158.11 µM): 0.504; relative viability (HARA; first compound 500 µM): 0.0371; relative viability (NCI-H838; first compound 5 µM): 1.12; relative viability (NCI-H838; first compound 15.81 µM): 1.01; relative viability (NCI-H838; first compound 50 µM): 1.03; relative viability (NCI-H838; first compound 158.11 µM): 0.39; relative viability (NCI-H838; first compound 500 µM): 0.113; relative viability (NCI-H3122; first compound 5 µM): 0.992; relative viability (NCI-H3122; first compound 15.81 µM): 1.06; relative viability (NCI-H3122; first compound 50 µM): 0.988; relative viability (NCI-H3122; first compound 158.11 µM): 0.571; relative viability (NCI-H3122; first compound 500 µM): 0.0262
